According to patent US5840684A, “Glycopeptide antibiotic derivatives” (Eli Lilly and Company, priority 1995, dated 1998):
Values after ≈ are worked out from the molar mass of the structure shown.

Assays:
Entercoccus faecium 180 = experiment: broth micro-dilution MIC; format: cell-based; details: Entercoccus faecium 180
Experimental: (§1) The formula I compounds have in vitro and in vivo activity against Gram-positive pathogenic bacteria. The MIC's were determined using a standard broth micro-dilution assay.

[1] = test system: Streptococcus pneumoniae P1; experiment: broth micro-dilution MIC; format: cell-based
Experimental: as §1

[2] = test system: Enterococcus gallinarum 245; experiment: broth micro-dilution MIC; format: cell-based; details: Enterococcus gallinarum 245
Experimental: as §1

[3] = test system: Staphylococcus epidermidis 270; experiment: broth micro-dilution MIC; format: cell-based
Experimental: as §1

Entercoccus faecium 2041 = experiment: broth micro-dilution MIC; format: cell-based; details: Entercoccus faecium 2041
Experimental: as §1

[4] = test system: Staphylococcus haemolyticus 415; experiment: broth micro-dilution MIC; format: cell-based
Experimental: as §1

[5] = test system: Staphylococcus haemolyticus 105; experiment: broth micro-dilution MIC; format: cell-based
Experimental: as §1

[6] = test system: Staphylococcus aureus SA1199A; experiment: broth micro-dilution MIC; format: cell-based
Experimental: (§2) The MIC's were determined using a standard broth micro-dilution assay.

[7] = test system: Staphylococcus aureus 446; experiment: broth micro-dilution MIC; format: cell-based
Experimental: as §2

[8] = test system: Entercoccus faecium 180-1; experiment: broth micro-dilution MIC; format: cell-based
Experimental: as §2

[9] = test system: Staphylococcus aureus SA1199; experiment: broth micro-dilution MIC; format: cell-based
Experimental: as §2

[10] = test system: Streptococcus pyogenes C203; experiment: broth micro-dilution MIC; format: cell-based
Experimental: as §2

[11] = test system: Staphylococcus aureus X400; experiment: broth micro-dilution MIC; format: cell-based
Experimental: as §2

[12] = test system: Staphylococcus aureus X778; experiment: broth micro-dilution MIC; format: cell-based
Experimental: as §2

[13] = test system: vancomycin-resistant enterococci; experiment: broth micro-dilution, mean geometric MIC; format: cell-based, Enterococcus faecium and Enterococcus faecalis; details: enterococci, 24-hour incubation
[14] = test system: vancomycin-susceptible enterococci; experiment: broth micro-dilution, mean geometric MIC; format: cell-based, Enterococcus faecium and Enterococcus faecalis; details: enterococci, 24-hour incubation
Streptococcus pneumoniae = experiment: mouse protection, experimentally-induced infection; format: in vivo; details: mice infected with Streptococcus pneumoniae, two doses
Streptococcus pyogenes = experiment: mouse protection, experimentally-induced infection; format: in vivo; details: mice infected with Streptococcus pyogenes, two doses
[15] = test system: Staphylococcus aureus S13E; format: cell-based
Experimental: as §2

[16] = test system: Staphylococcus aureus SA1199B; format: cell-based
Experimental: as §2

[17] = test system: Staphylococcus aureus 491; experiment: broth micro-dilution MIC; format: cell-based
Experimental: as §2

Entercoccus faecium 276 = experiment: broth micro-dilution MIC; format: cell-based
Experimental: as §2

[18] = test system: Staphylococcus aureus 447; experiment: broth micro-dilution MIC; format: cell-based
Experimental: as §2

[19] = test system: Staphylococcus aureus 489; experiment: broth micro-dilution MIC; format: cell-based
Experimental: as §2

SMILES | MIC (Entercoccus faecium 180) | MIC [1] | MIC [2] | MIC [3] | MIC (Entercoccus faecium 2041) | MIC [4] | MIC [5] | MIC [6] | MIC [8] | MIC [9] | MIC [10] | MIC [11] | MIC [12] | mean geometric MIC, Vancomycin Resistant Strains [13] | mean geometric MIC, Vancomycin Sensitive Strains [14] | ED50 (Streptococcus pneumoniae) | ED50 (Streptococcus pyogenes) | MIC [15] | MIC [16] | MIC [18] | also measured
CN[C@H](CC(C)C)C(=O)N[C@H]1C(=O)N[C@@H](CC(N)=O)C(=O)N[C@H]2C(=O)N[C@H]3C(=O)N[C@H](C(=O)N[C@H](C(=O)O)c4cc(O)cc(O)c4-c4cc3ccc4O)[C@H](O[C@H]3C[C@](C)(N)[C@@H](O)[C@H](C)O3)c3ccc(c(Cl)c3)Oc3cc2cc(c3O[C@@H]2O[C@H](CO)[C@@H](O)[C@H](O)[C@H]2O[C@H]2C[C@](C)(NCc3ccc(OCc4ccc(Cl)cc4)cc3)[C@@H](O)[C@H](C)O2)Oc2ccc(cc2Cl)[C@H]1O [Compound 93] | ≤ 0.06 mg/L | ≤ 0.06 mg/L | 1 mg/L (≈ 0.549 µM) | 1 mg/L (≈ 0.549 µM) | ≤ 0.06 mg/L | 1 mg/L (≈ 0.549 µM) | 1 mg/L (≈ 0.549 µM) | ≤ 0.06 mg/L | ≤ 0.06 mg/L | 2 mg/L (≈ 1.1 µM) | ≤ 0.06 mg/L | ≤ 0.06 mg/L | 1 mg/L (≈ 0.549 µM) | 0.42 mg/L | 0.042 mg/L | 0.012 mg/kg/2 | 0.074 mg/kg/2 | 1 mg/L (≈ 0.549 µM) | 1 mg/L (≈ 0.549 µM) | – | MIC [7]: 2 mg/L (≈ 1.1 µM)
CN[C@H](CC(C)C)C(=O)N[C@H]1C(=O)N[C@@H](CC(N)=O)C(=O)N[C@H]2C(=O)N[C@H]3C(=O)N[C@H](C(=O)N[C@H](C(=O)O)c4cc(O)cc(O)c4-c4cc3ccc4O)[C@H](O[C@H]3C[C@](C)(N)[C@@H](O)[C@H](C)O3)c3ccc(c(Cl)c3)Oc3cc2cc(c3O[C@@H]2O[C@H](CO)[C@@H](O)[C@H](O)[C@H]2O[C@H]2C[C@](C)(NCc3ccc(-c4ccc(C)cc4)cc3)[C@@H](O)[C@H](C)O2)Oc2ccc(cc2Cl)[C@H]1O [Compound 97] | – | ≤ 0.06 mg/L | 2 mg/L (≈ 1.13 µM) | 1 mg/L (≈ 0.564 µM) | ≤ 0.06 mg/L | 2 mg/L (≈ 1.13 µM) | 2 mg/L (≈ 1.13 µM) | ≤ 0.06 mg/L | ≤ 0.06 mg/L | 2 mg/L (≈ 1.13 µM) | ≤ 0.06 mg/L | 1 mg/L (≈ 0.564 µM) | – | 0.71 mg/L | 0.054 mg/L | 0.038 mg/kg/2 | 0.066 mg/kg/2 | – | 1 mg/L (≈ 0.564 µM) | 1 mg/L (≈ 0.564 µM) | MIC [7]: 1 mg/L (≈ 0.564 µM); MIC [17]: 0.5 mg/L (≈ 0.282 µM); MIC (Entercoccus faecium 276): ≤ 0.06 mg/L
CCOc1cc(CNC2(C)CC(OC3C(Oc4c5cc6cc4Oc4ccc(cc4Cl)C(OC4CC(C)(N)C(O)C(C)O4)C4NC(=O)C(NC(=O)C6NC(=O)C(CC(N)=O)NC(=O)C(NC(=O)C(CC(C)C)NC)C(O)c6ccc(c(Cl)c6)O5)c5ccc(O)c(c5)-c5c(O)cc(O)cc5C(C(=O)O)NC4=O)OC(CO)C(O)C3O)OC(C)C2O)ccc1OCC1CCCCC1 (centres unmarked) [Compound 105] | – | ≤ 0.06 mg/L | 1 mg/L (≈ 0.544 µM) | – | – | 1 mg/L (≈ 0.544 µM) | 1 mg/L (≈ 0.544 µM) | – | ≤ 0.06 mg/L | 1 mg/L (≈ 0.544 µM) | ≤ 0.06 mg/L | 0.5 mg/L (≈ 0.272 µM) | 0.5 mg/L (≈ 0.272 µM) | 0.84 mg/L | 0.062 mg/L | 0.041 mg/kg/2 | 0.12 mg/kg/2 | 0.5 mg/L (≈ 0.272 µM) | 0.5 mg/L (≈ 0.272 µM) | 0.5 mg/L (≈ 0.272 µM) | MIC [19]: 0.5 mg/L (≈ 0.272 µM)
CNC(CC(C)C)C(=O)NC1C(=O)NC(CC(N)=O)C(=O)NC2C(=O)NC3C(=O)NC(C(=O)NC(C(=O)O)c4cc(O)cc(O)c4-c4cc3ccc4O)C(OC3CC(C)(N)C(O)C(C)O3)c3ccc(c(Cl)c3)Oc3cc2cc(c3OC2OC(CO)C(O)C(O)C2OC2CC(C)(NCc3ccc(OCc4ccc([N+](=O)[O-])cc4)cc3)C(O)C(C)O2)Oc2ccc(cc2Cl)C1O (centres unmarked) [Compound 131] | ≤ 0.06 mg/L | ≤ 0.06 mg/L | 2 mg/L (≈ 1.09 µM) | 1 mg/L (≈ 0.545 µM) | ≤ 0.06 mg/L | 2 mg/L (≈ 1.09 µM) | 1 mg/L (≈ 0.545 µM) | ≤ 0.06 mg/L | ≤ 0.06 mg/L | – | ≤ 0.06 mg/L | 1 mg/L (≈ 0.545 µM) | 0.5 mg/L (≈ 0.273 µM) | 0.84 mg/L | 0.028 mg/L | 0.077 mg/kg/2 | < 0.031 mg/kg/2 | 1 mg/L (≈ 0.545 µM) | 1 mg/L (≈ 0.545 µM) | 1 mg/L (≈ 0.545 µM) | MIC [7]: 2 mg/L (≈ 1.09 µM); MIC [19]: 1 mg/L (≈ 0.545 µM)
CNC(CC(C)C)C(=O)NC1C(=O)NC(CC(N)=O)C(=O)NC2C(=O)NC3C(=O)NC(C(=O)NC(C(=O)O)c4cc(O)cc(O)c4-c4cc3ccc4O)C(OC3CC(C)(N)C(O)C(C)O3)c3ccc(c(Cl)c3)Oc3cc2cc(c3OC2OC(CO)C(O)C(O)C2OC2CC(C)(NCc3ccc(-c4ccc(F)cc4)cc3)C(O)C(C)O2)Oc2ccc(cc2Cl)C1O (centres unmarked) [Compound 211] | ≤ 0.06 mg/L | ≤ 0.06 mg/L | ≤ 0.06 mg/L | 0.5 mg/L (≈ 0.281 µM) | ≤ 0.06 mg/L | 0.5 mg/L (≈ 0.281 µM) | 0.5 mg/L (≈ 0.281 µM) | – | ≤ 0.06 mg/L | 0.5 mg/L (≈ 0.281 µM) | ≤ 0.06 mg/L | 0.5 mg/L (≈ 0.281 µM) | 1 mg/L (≈ 0.563 µM) | 0.35 mg/L | 0.024 mg/L | 0.041 mg/kg/2 | < 0.031 mg/kg/2 | 0.5 mg/L (≈ 0.281 µM) | 1 mg/L (≈ 0.563 µM) | 0.5 mg/L (≈ 0.281 µM) | MIC [7]: 1 mg/L (≈ 0.563 µM); MIC (Entercoccus faecium 276): ≤ 0.06 mg/L
CNC(CC(C)C)C(=O)NC1C(=O)NC(CC(N)=O)C(=O)NC2C(=O)NC3C(=O)NC(C(=O)NC(C(=O)O)c4cc(O)cc(O)c4-c4cc3ccc4O)C(OC3CC(C)(N)C(O)C(C)O3)c3ccc(c(Cl)c3)Oc3cc2cc(c3OC2OC(CO)C(O)C(O)C2OC2CC(C)(NCc3ccc(OCCCc4ccccc4)cc3)C(O)C(C)O2)Oc2ccc(cc2Cl)C1O (centres unmarked) [Compound 223] | ≤ 0.06 mg/L | ≤ 0.06 mg/L | 1 mg/L (≈ 0.55 µM) | 0.5 mg/L (≈ 0.275 µM) | ≤ 0.06 mg/L | 1 mg/L (≈ 0.55 µM) | 1 mg/L (≈ 0.55 µM) | ≤ 0.06 mg/L | ≤ 0.06 mg/L | 2 mg/L (≈ 1.1 µM) | ≤ 0.06 mg/L | 1 mg/L (≈ 0.55 µM) | 1 mg/L (≈ 0.55 µM) | 0.79 mg/L | 0.055 mg/L | < 0.031 mg/kg/2 | < 0.031 mg/kg/2 | 0.5 mg/L (≈ 0.275 µM) | 1 mg/L (≈ 0.55 µM) | 0.5 mg/L (≈ 0.275 µM) | MIC [19]: 1 mg/L (≈ 0.55 µM)
CN[C@H](CC(C)C)C(=O)N[C@H]1C(=O)N[C@@H](CC(N)=O)C(=O)N[C@H]2C(=O)N[C@H]3C(=O)N[C@H](C(=O)N[C@H](C(=O)O)c4cc(O)cc(O)c4-c4cc3ccc4O)[C@H](O[C@H]3C[C@](C)(N)[C@@H](O)[C@H](C)O3)c3ccc(cc3)Oc3cc2cc(c3O[C@@H]2O[C@H](CO)[C@@H](O)[C@H](O)[C@H]2O[C@H]2C[C@](C)(N)[C@@H](O)[C@H](C)O2)Oc2ccc(cc2Cl)[C@H]1O [Compound A82846A, A82846A, reference compound] | 16 mg/L (≈ 10.3 µM) | – | 0.125 mg/L (≈ 0.0802 µM) | – | 0.125 mg/L (≈ 0.0802 µM) | 1 mg/L (≈ 0.642 µM) | 0.5 mg/L (≈ 0.321 µM) | ≤ .06 mg/L | 0.125 mg/L (≈ 0.0802 µM) | 0.125 mg/L (≈ 0.0802 µM) | – | 0.125 mg/L (≈ 0.0802 µM) | 0.125 mg/L (≈ 0.0802 µM) | – | 1.7 mg/L | 0.39 mg/kg/2 | 0.084 mg/kg/2 | 0.125 mg/L (≈ 0.0802 µM) | ≤ .06 mg/L | – | MIC [19]: 0.5 mg/L (≈ 0.321 µM); MIC (Entercoccus faecium 276): 0.125 mg/L (≈ 0.0802 µM)
